Counter-ions that a name gives are not always drawn.
Tests used:
[1] = Relative stability of hydrate forms, competitive slurry experiments in IPA/water systems; assay type: physicochemical
Excerpt: The relative stability between free base Form A, Form B, and Form D was investigated by conducting competitive slurry experiments in isopropyl alcohol (IPA)/water systems at room temperature. […] Further addition of Form A to the experiments verified the result. In systems with αw≥0.37, only Form A was observed after 1 day of stirring at room temperature. Further addition of Form B and Form D to the experiment confirmed the outcome.

[2] = Pharmacokinetics after oral capsule administration to dogs pre-treated with pentagastrin or famotidine; assay type: in vivo, male beagle dogs; conditions: 100 mg/dog, particle size normalized
Description: The substances were filled into Empty HPMC Capsules after correcting for potency and administered to dogs pre-treated with either pentagastrin or famotidine along with 40 mL of water. Pentagastrin enhances gastric secretions whereas famotidine neutralizes gastric sections. Therefore, pentagastrin and famotidine pre-treatments were used to simulate the impact of gastric pH on bioavailability and reduce the variability in gastric pH between dogs.
Plasma samples were collected at pre-defined intervals and analyzed for the concentration of Compound 1. The plasma concentration versus time data was analyzed by non-compartmental approaches using Win Nonlin software program to estimate PK parameters such as Cmax, Tmax, AUC0-t and AUC0-inf.

[3] = Excipient compatibility, total impurity content of binary mixtures by HPLC; assay type: physicochemical; conditions: 40° C./75% RH, 8 weeks; for Compatibility with excipients (total impurity content): binary mixtures, open condition; for Risk of chemical stability: with excipients
Excerpt: Binary mixtures of samples were created by mixing the substance and the excipients (1:10 Compound to Excipients for fillers and 1:1 for all other excipients) using a mortar and pestle and the resultant mixture was accurately weighed and transferred into sample vials. The excipients used were as follows: colloidal silicon dioxide 200, croscarmellose sodium, crosprovidone XL-10, dibasic calcium phosphate (an), hydroxypropyl cellulose, lactose monohydrate, magnesium stearate, mannitol 100SD, MCC PH102, Opadry™ 11, povidone K-30, pregelatinized starch 1500, sodium starch glycolate, and sodium stearyl fumarate. The sample vials were set down at 40° C./75% RH condition for 8 weeks in open condition before analyzing their impurity levels using HPLC.

[4] = Compressibility, tabletability, compatibility and physical stability under compaction; assay type: physicochemical
Description: The compressibility (i.e., porosity vs compaction pressure), tabletability (i.e., tensile strength vs compaction pressure), and compatibility (i.e. tensile strength vs porosity) of Free Base Form A of Compound 1 was measured.

[5] = Intrinsic dissolution rate and drug in capsule dissolution in FaSSGF and FaSSIF; assay type: physicochemical
Description: The IDR rate was calculated using the slope of the linear curve divided by the surface area of tablet (0.5 cm^2). […] 0.6 mL liquid was removed with a syringe at each time point and filtered. The concentration of filtrates was analyzed by HPLC.

| SMILES | Conversion rate in competitive slurry ([1]; αw=0.13, compared with higher water activities) | Form conversion in competitive slurry ([1]; αw=0.13, room temperature) | Exposure (plasma AUC) compared with HCl salt [2] | Compatibility with excipients (total impurity content) [3] | Sensitivity to individual excipients (total impurity content) ([3]; colloidal silicon dioxide and lactose monohydrate, open) | Risk of chemical stability ([3]; open) | Compatibility (tensile strength vs porosity) [4] | Compressibility (porosity vs compaction pressure) [4] | Tabletability (tensile strength vs compaction pressure) [4] | Loss of crystallinity (XRPD before and after compression) ([4]; high compaction pressures) | Dissolution in gastric media ([5]; 37° C., 50 rpm) | Supersaturation in intestinal fluid ([5]; pH shifted from gastric to intestinal after 30 minutes) | Dissolution rate in intestinal media ([5]; intestinal media, 37° C., 50 rpm) |
| --- | --- | --- | --- | --- | --- | --- | --- | --- | --- | --- | --- | --- | --- |
| Cn1ncc(-c2ccc3c(=O)[nH]nc(CN)c3c2)c1-c1c(F)c(Cl)cc(OC2CC2)c1C#N [Form B, 2-(4-(4-(aminomethyl)-1-oxo-1,2-dihydrophthalazin-6-yl)-1-methyl-1H-pyrazol-5-yl)-4-chloro-6-cyclopropoxy-3-fluorobenzonitrile] | slightly slower than those at higher water activities | converted to Form A eventually |  |  |  |  |  |  |  |  |  |  |  |
| Cn1ncc(-c2ccc3c(=O)[nH]nc(CN)c3c2)c1-c1c(F)c(Cl)cc(OC2CC2)c1C#N [Free Base Form A, 2-(4-(4-(aminomethyl)-1-oxo-1,2-dihydrophthalazin-6-yl)-1-methyl-1H-pyrazol-5-yl)-4-chloro-6-cyclopropoxy-3-fluorobenzonitrile] |  |  | equivalent exposure to HCl salt | good compatibility with excipients | more sensitive to colloidal silicon dioxide and lactose monohydrate than HCl Form B | slightly higher | good | good | good | No apparent loss of crystallinity | faster dissolution in gastric media | able to maintain super saturation in intestinal fluid |  |
| Cn1ncc(-c2ccc3c(=O)[nH]nc(CN)c3c2)c1-c1c(F)c(Cl)cc(OC2CC2)c1C#N [HCl Form B] |  |  |  | good compatibility with excipients |  | slightly higher |  |  |  |  | common ion effect slowing dissolution |  | slightly faster dissolution rate than Free Base Form A |

Source: patent US20240270719A1, “CRYSTALLINE FORMS OF 2-(4-(4-(AMINOMETHYL)-1-OXO-1,2-DIHYDROPHTHALAZIN-6-YL)-1-METHYL-1H-PYRAZOL-5-YL)-4-CHLORO-6-CYCLOPROPOXY-3-FLUOROBENZONITRILE” (Mirati Therapeutics, Inc., priority 2023, published 2024)
